Common to all, as to type: cell-based
Test [1] concerns TGase 2 (TGM-2) transcript. As to the kind of experiment: qPCR of TGases mRNA in mouse scleral fibroblasts after muscarinic agents. The following applies: 0.01-10 μM for 5 days, qPCR normalized to GAPDH. As for the experimental part:
(§1) P2 cultured mouse scleral fibroblasts were treated with atropine or carbachol at different concentrations of 0.01 μM, 0.1 μM, […], 5 μM and 10 μM for 5 days. Following 5 days of treatment, the total RNA was extracted from these cells and TGases transcript level was quantified via qPCR analysis. Height of bars show the means of three independent samples and error bars represent standard deviation. Values are normalized against GAPDH house keeping genes.
Murine scleral derived fibroblasts were cultured to passage 2 and treated to exogenous atropine or carbachol at 0.01 μM, 0.1 μM, 1 μM, 5 μM and 10 μM for 5 days. Following 5 days of treatment, the total RNA was extracted from these cells and RT-qPCR performed to determine transcript levels of TGM-2. The levels were normalized to GAPDH internal control. […] Height of bars or symbols represents mean and error bars SD. *: p<0.05 and **: p<0.001.
All cells used in examples described herein were between passages 2-4. Passaged cells were plated at a concentration of 2×10^5/mL into 6 well plates containing DMEM with 10% FBS. The cells were seen to attach to the bottom of the culture wells after 4 hours. […] The supernatant was poured into a new eppendorf tube and cell concentrations were determined using the Dc Protein assay Kit (Bio-Rad, MA). […] Cell lysate was collected for relative quantitative (q) PCR and protein analysis at day 5. […]
In general terms: Quantitative PCR measures a nucleic acid by following its amplification.

Test [2] relates to TG-2. As to the kind of experiment: TG-2 colorimetric microassay (transamidase activity) in lysate of treated mouse scleral fibroblasts. The note with it: murine scleral derived fibroblasts, 0.01-10 μM for 5 days.
The test system of test [3] is TG-2. The experiment in a line: Western blot of TG proteins in mouse scleral fibroblasts after muscarinic agents. As for the experimental part: (§2) All cells used in examples described herein were between passages 2-4. Passaged cells were plated at a concentration of 2×10^5/mL into 6 well plates containing DMEM with 10% FBS. The cells were seen to attach to the bottom of the culture wells after 4 hours. Old media was removed from wells and 1 mL of drug was added with fresh full medium and incubated at 37° C. Fresh drugs were replaced daily consecutively for the next 5 days to avoid oxidation. The drugs/media was removed and wells were washed twice with 1×PBS. 200 μl of RIPA lysis buffer was added per well and incubated for 5 minutes and cells were scrapped into an eppendorf tube. The cells were stored at −20° C. until sonication. The cells were sonicated on ice thrice at 20% output power for 5 seconds each time and rested 1 minute in between each turn. Cell debris was spun down at 12000 rpm for 20 minutes. The supernatant was poured into a new eppendorf tube and cell concentrations were determined using the Dc Protein assay Kit (Bio-Rad, MA). Passaged cells were plated at a concentration of 1×10^5 into 6 well plates containing DMEM with 10% FBS. The cells were seen to attach to the bottom of the culture wells after 4 hours. Freshly prepared muscarinic agents' at base line, 0.1, 1, 10 and 100 μM concentrations were added for 5 days (Table 2). The culture medium was removed and fresh medium containing the same muscarinic drug added every day to avoid drug changes such as atropine oxidation. Cell lysate was collected for relative quantitative (q) PCR and protein analysis at day 5.
(§3) The cells were lysed by sonification in 1×RIPA lysis buffer (santa cruz biotechnology, Sc-24948) with 10 μl PMSF solution, 10 μl sodium orthovanadate solution and 20 μl protease inhibitor cocktail solution. After centrifugation at 20,000×g at 4° C. for 20 minutes, and the supernatant collected. The protein content in the supernatants was measured using the DC Protein Assay kit (Bio-Rad, MA) following the manufacturer's instructions. Samples were stored at −80° C. until assayed.
(§4) The mouse and human scleral fibroblasts were treated with atropine or carbachol at 0.01, 0.1, 1, 5 and 10 μM concentrations for 5 days. Following 5 days of treatment, the total cellular protein was extracted from these cells and TG proteins detected via Western blot analysis.
Human and, mouse scleral fibroblast proteins in the supernatant were separated by SDS-PAGE, transferred to nitrocellulose membranes, blocked in 5% BSA in TBST (10 mM Tris-HCl [pH 8.0], 150 mM NaCl, and […] Tween-20) for 2 hours at room temperature, and incubated with the same anti-TG-2 antibody described herein at a dilution of 1:1000 and anti β-tubulin antibodies used as a positive control, for 1 hour at room temperature. The membranes were washed 3 times in TBST and incubated with HRP-conjugated secondary antibody (Chemicon International) at a dilution of 1:2500 for 1 hour at room temperature. Immunoreactive bands were visualized using the enhanced chemiluminescence method (GE Healthcare, Buckinghamshire, UK). The membrane was wrapped in plastic and placed against an X-ray film to expose for an appropriate length of time (30 seconds-5 minutes).
(Immunoblotting shows a protein as a band on a membrane.)

The subject of test [4] is TG-2. As to the kind of experiment: Western blot of TG proteins in human scleral fibroblasts after muscarinic agents. The protocol: as §2, §3, §4
Human and, mouse scleral fibroblast proteins in the supernatant were separated by SDS-PAGE, transferred to nitrocellulose membranes, blocked in 5% BSA in TBST (10 mM Tris-HCl [pH 8.0], 150 mM NaCl, and […] Tween-20) for 2 hours at room temperature, and incubated with the same anti-TG-2 antibody described herein at a dilution of 1:1000 and anti β-tubulin antibodies used as a positive control, for 1 hour at room temperature. […]

A further test deals with TGase 5 transcript. The experiment in a line: qPCR of TGases mRNA in mouse scleral fibroblasts after muscarinic agents. The note with it: 0.01-10 μM for 5 days, qPCR normalized to GAPDH. The protocol:
as §1, §2
(§5) Total RNA was isolated from cultured human and mouse scleral fibroblasts using TRIzol reagent (Invitrogen life technologies, USA) in accordance with the manufacturer's instructions Chomczynski P, Sacchi N., “Single-step method of RNA isolation by acid guanidinium thiocyanate-phenol-chloroform extraction”, Anal. Biochem. 1987 April; 162(1):156-9. Genomic DNA was removed by digestion with DNase I (Amp Grade; Invitrogen-Gibco) for 15 minutes at room temperature. One microgram of total RNA was reverse-transcribed with random hexamers by using a first-strand cDNA synthesis kit (Invitrogen-Gibco). qPCR was performed in a 384-well plate format on an Roche 480 LightCycler Detection System (Roche Applied Science, Mannheim, Germany) with efficiency corrected software 4.0. PCR was performed using 50 ng of cDNA of each sample. The pre-validated hydrolysis probes for TG-2 were from human and mouse universal probe library (Roche, CA) and the primers for human and mouse are shown in Table 3. GAPDH Internal Standard (Roche) was used as an endogenous control. To standardize and evaluate scleral gene expression, aliquots of the same cDNA (50 ng) preparation were used as templates in all PCR reactions. The data was analyzed by comparative CT (MCT) method as previously described in Brink N, Szamel M, Young A R, Wittern K P, Bergemann J., “Comparative quantification of IL-1, IL-10, Il-10r, TNF and IL-7 mRNA levels in UV-irradiated human skin in vivo”, Inflamm Res. 2000 June; 49(6):290-6.

The subject of a further test is TGase 1 transcript. The test is described as above. The note with it: 0.01-10 μM for 5 days, qPCR normalized to GAPDH. The protocol:
as §1, §2, §5

The test system of another test is TGase-3 transcript. The test is described as above. The note with it: 0.01-10 μM for 5 days, qPCR normalized to GAPDH. As for the experimental part: as §1, §2, §5
The mark [5] stands for this setting: 0.01-10 μM for 5 days, Western blot.
[6] abbreviates: specific muscarinic antagonists.

These results are taken from US20140050779A1, “[…]-2 INHIBITORS AND USES THEREOF” (SINGAPORE HEALTH SERVICES PTE. LTD., priority 2011, published 2014).

The structures appear in SMILES notation. Entries after “also recorded” stand apart in the source; their conditions may differ.

With `CN1[C@@H]2CC[C@H]1C[C@@H](OC(=O)C(CO)c1ccccc1)C2` (stereo partly drawn) [atropine], the “TGase 2 (TGM-2) transcript level” value in test [1] is on record as “reduction; also recorded: down regulated”. Also, the “transamidase (cross-linking) activity of TG-2” value in the test on TG-2 [2] is recorded as “reduction”. Moreover, the TG-2 protein level entry is listed as “reduced; also recorded: reduction” in the test on TG-2 [3] (setting [5]) and “reduced” in the test on TG-2 [4] (setting [5]). Moreover, in the test on TGase 5 transcript, the “TGase 5 transcript level” value was “down regulated”. Besides, the “TGase 1 transcript level” value with TGase 1 transcript was “down regulated”. For the same compound, in the test on TGase-3 transcript, the TGase-3 transcript level result was “upregulated”.

Turning to `C[C@@H]1OC(=O)[C@H]2C[C@H]3CCCC[C@@H]3[C@@H](/C=C/[C@H]3CCC[C@H](C)N3C)[C@@H]12` [himbacine], the TG-2 protein level entry with TG-2 [3] (setting [6]) and in the test on TG-2 [4] (setting [6]) was “significantly reduced” in each case.
